{"source": "patent US11246961B2", "about": "“Engineered scaffolds for vascularized tissue repair” (The Regents of the University of California, priority 2016, dated 2022)", "system": "platelets", "assay": "platelet-bead binding assay", "assay_type": "cell-based", "settings": "10 minutes, 30 minutes or 2 hours", "experimental": "HECFCs, HCAECs and HMVECs were cultured in EC expansion medium EGM-2 and THP-1 monocytes were cultured in RPMI Medium 1640 (Gibco) supplemented with 10% fetal bovine serum (FBS, Hyclone) and 0.05 mM 2-mercaptoethanol (Sigma). αvβ3-K562 cells and αIIbβ3-K562 cells were cultured in RPMI Medium 1640 plus 10% FBS. Platelet-rich plasma (PRP) was obtained from UC Davis Medical Center (Sacramento, Calif.). Fresh PRP (260×10^3 platelets/μL) was centrifuged, and the pellets were resuspended in Dulbecco's Phosphate Buffer Saline (DPBS; Hyclone) containing 2 mM CaCl2) and MgCl2 to a final concentration of 1×10^8 platelets/mL.\nHECFCs, HCAECs, HMVECs and THP-1 monocytes were cultured in their respective growth medium as described in Example 1. For cell bead-binding assay, 6×10^5 HECFCs, HCAECs, HMVECs or THP-1 monocytes in 2 mL of their respective culture medium were added to an ultra-low attachment 35-mm petri dish (Corning Incorporated) followed by resin beads (Lam et al. (1991) Nature 354:82). The dishes were incubated in a shaking incubator at 37° C., 5% CO2 for various time points at 40 rpm. For platelet bead-binding assay, the platelets isolated as described in Example 1 were added to an ultra-low attachment 35-mm petri dish and incubated with the resin beads in the shaking incubator as described for the cell-bead binding assy. […]"}
{"substance": "cGRGDdvc [LXW7]", "values": [{"measurement": "attachment of platelets to beads displaying LXW7", "value": "did not support effective attachment"}]}
